Measured values: patent US20220023269A1, “Methods Of Treating Diabetes In Severe Insulin-Resistant Diabetic Subjects” (Balticgruppen Bio AB, priority 2018, published 2022)

Columns and labels:
rat skeletal L6 myotubes = assay: Glucose uptake in L6 myotubes; assay type: cell-based; details: 2.5, 5, 10 μM; absence of insulin; siAMPKα1/α2
Protocol: Rat L6 skeletal muscle cells grown in high-glucose (4.5 g/L) Dulbecco's Modified Eagle Medium (Gibco #31966), 10% fetal bovine serum (Gibco #10500-064) and 25 μg/ml gentamicin (Gibco 1 #5750) were induced to differentiate, by reducing the serum concentration to 2% for 14 days by which time the majority of myoblast had differentiated to myotubes. Myotubes were rinsed in serum-free low-glucose (1 g/L) DMEM (Gibco a #21885), treated with vehicle control, 2.5, 5 and 10 μM test material (serum-free low-glucose DMEM, 0.1% DMSO) for 2 hours, rinsed in serum-free DMEM w/o glucose (Gibco #11966) and thereafter incubated with the same for 20 minutes before addition of 1 μCi 2-Deoxy-D-glucose (2-DG) (Perkin Elmer #NET549A250UC) for 10 minutes. The cells were rinsed 3 times in serum-free DMEM w/o glucose and lysed in 1 ml RIPA buffer (150 mM Sodiumchloride, 1% NP40, 0.5% Sodiumdeoxycholate, 0.1% SDS, 50 mM Tris pH8.0). 300 μl were added to 4 ml liquid scintillation cocktail (Perkin Elmer #1200-437) before counted, 1 minute, in a Wallac 1414 beta counter. CPM was converted to arbitrary units by setting vehicle control as 1. […]

PP2Ca = biological target: T1, PP2Ca (Homo sapiens, UniProt P35813); assay: PP2C phosphatase activity assay; assay type: biochemical; details: 5, 10 or 20 μM
T1 construct: purchased Abcam ab51205
T1 sequence (P35813 whole entry): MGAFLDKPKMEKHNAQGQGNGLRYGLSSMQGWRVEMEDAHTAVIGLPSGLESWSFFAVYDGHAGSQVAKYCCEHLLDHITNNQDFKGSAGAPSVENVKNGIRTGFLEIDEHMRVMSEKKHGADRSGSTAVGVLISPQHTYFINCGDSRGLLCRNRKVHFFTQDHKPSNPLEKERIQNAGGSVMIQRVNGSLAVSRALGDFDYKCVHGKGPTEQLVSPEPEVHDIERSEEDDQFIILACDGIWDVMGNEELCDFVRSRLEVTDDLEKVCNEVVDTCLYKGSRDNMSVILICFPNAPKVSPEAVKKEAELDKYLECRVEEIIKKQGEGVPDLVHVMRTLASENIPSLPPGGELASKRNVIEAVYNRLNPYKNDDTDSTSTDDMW
Protocol: 3 ng/μl PP2Ca (Abcam ab51205) and 5, 10 or 20 μM test material in buffer (50 mM Tris-HCL pH 7.5, 0.1 mM EDTA, 0.5 mM DTT, 5 mM MgCl2) was used in the Sensolyte FDP protein phosphatase assay kit (Anaspec #71100) according to the manufacturer's instructions to measure the activity of PP2Ca. The fluorescence intensity was measured in a Bio Tek Synergy H4 multi-mode microplate reader.

[1] = system: primary human hepatocytes; assay: [1,2-14C] acetate incorporation into total lipids; assay type: cell-based; details: 0.625, 1.25, 2.5 or 5 μM
Protocol: Primary human hepatocytes (65,000-130,000 cells/well in 24-well dishes) were treated with vehicle control, 0.625, 1.25, 2.5 or 5 μM test material in serum free Williams' medium E, 2 hours, before addition of 0.25 μCi [1,2-^14C]-acetate/well for an additional 4 hours. 200 μl 0.5% trypsin was used to detach the cells before addition of 800 μl chloroform/methanol (2:1) and 500 μl 4 mM MgCl2. The samples were vortexed and spun at 14,000 rpm, 2 minutes before discarding the aqueous layer. The procedure was repeated twice, first with 700 μl chloroform/methanol (2:1) and 500 μl 4 mM MgCl2 and then 400 μl chloroform/methanol (2:1) and 500 μl 4 mM MgCl2. The organic phase was transferred into a scintillation vial and evaporated to dryness by a stream of nitrogen. The residue was dissolved in 3 ml liquid scintillation cocktail (Optiphase HiSafe 3, Perkin Elmer #1200.437) and 14 C determined for 1 minute in a Wallac 1414 beta counter (Perkin Elmer). Before lipid extraction, 10 μl samples were used to determine protein concentration. 14 C-values were normalised to cellular protein concentration.

CBA mice on HFD = assay: In vivo glucose uptake ([18F]-FDG PET); details: 2 mg/g in HFD, 2 w, vs HFD
Protocol: Mice were allowed to be awake and freely moving around in their cage after injection. After 180 minutes, mice were sacrificed under deep isoflurane anaesthesia and blood was removed by retrograde perfusion of PBS via the aorta. When the liver was pale, tissues were collected and scanned for a 10 minutes static uptake (nanoScan PET/CT, Mediso, Hungary). The tissues were then scanned ex vivo scanning to assess uptake in the isolated tissues. Images were reconstructed to a 0.4×0.4 mm resolution with a 3D iterative reconstruction with 4 iterations and 4 subsets (Mediso Tera-Tomo 3D), covering 98 mm axial distance, employing spike filter, delayed-window random correction, scatter and CT-based attenuation corrections. Volumes of interest were manually delineated over each tissue using imlook4d (www.dicom-port.com). Tracer uptake was quantified as standardised uptake values (SUV), using the formula: SUV=C/(l/m); with C being the measured tissue activity concentration (Bq/mL), l the injected dose (Bq), and m the body weight (g). C and l are decay corrected to the same time.

In the case of `O=C(Nc1nc(=O)n(Cc2ccc(Cl)cc2)s1)c1ccc(Cl)cc1` [test material, 4-chloro-N-[2-[(4-chlorophenyl)methyl]-3-oxo-1,2,4-thiadiazol-5-yl]benzamide], the “2-Deoxy-D-glucose (2-DG) uptake” value (rat skeletal L6 myotubes) is reported as “increased 2-Deoxy-D-glucose (2-DG) uptake in a dose- and AMPK-dependent manner”, the “activity of PP2C” value (PP2Ca) is reported as “without inhibiting the activity of PP2C” and the lipid synthesis [1] is reported as “dose-dependently suppressed lipid synthesis”. The “[18F]-FDG uptake in calf and thigh muscle” value (CBA mice on HFD) was “significant increase” and the “[18F]-FDG uptake in heart” value (CBA mice on HFD) was “significant increase”.
